From US9198845B2, “Glutamine derivatives as deodorants” (Givaudan S.A., priority 2010, dated 2015)
Where two headings read alike, the source gives them in different places.

Legend:
Assay type in all cases: cell-based
Corynebacterium Ax 20 = assay: Inhibition of release of 3-hydroxy-3-methyl-hexanoic acid from Nα-(3-hydroxy-3-methyl-hexanoyl)-glutamine by bacterial cells (GC-analysis); details: for inhibition at 10 ppm / inhibition at 100 ppm / inhibition at 500 ppm / inhibition at 1000 ppm: Corynebacterium; for inhibition at 500 ppm: 500 ppm test compound; for inhibition at 1000 ppm: 1000 ppm test compound; for kind of inhibition (true inhibitor or alternative substrate): conclusion from Tables 1 and 2, prolonged preincubation; for IC 50 (Concentration for 50% inhibition of malodour release): estimated from the data in Table 1; for inhibitory activity compared to compound II: relative to compound II; for inhibition of malodour release: Compound Ia; for efficacy as inhibitors: general statement in the description
Procedure: (§1) Corynebacterium Ax 20 was grown overnight, harvested and resuspended in a phosphate buffer (50 mM, pH 7.5). Different compounds were dissolved in dimethylsulfoxide and added to the cells at a final concentration of 10 ppm, 100 ppm 500 ppm and 1000 ppm. The cells were then preincubated with the test agent for 30 min, 4 h, 8 h or 24 h. After this pre-incubation period, the natural substrate Nα-(3-hydroxy-3-methyl-hexanoyl)-glutamine was added (1 mM final concentration) and the cells were further incubated for 90 min. The released 3-hydroxy-3-methyl-hexanoic acid was determined by GC-analysis and compared to control samples to assess the […] malodor reducing capacity of a given compound in the bacterial cells. The samples were then further analysed to determine the cleavage of the synthetic compound by the action of the bacterial enzymes.

Ax43 = assay: Inhibition of release of 3-hydroxy-3-methyl-hexanoic acid in different bacterial species; details: Corynebacterium tuberculostearicum
Procedure: as §1
(§2) The inhibition of malodour release was tested on different bacterial species, all isolated from the human axilla. The method from Example 2 was used.

[1] = tested on: Ax20, Ax30, Ax43, Ax52, Ax73; assay: Inhibition of release of 3-hydroxy-3-methyl-hexanoic acid, average over bacterial species; details: for inhibition at 10 ppm / inhibition at 100 ppm: average of Ax20, Ax30, Ax43, Ax52, Ax73
Procedure: as §1, with “The cells were then preincubated with the test agent for 30 min, 4 h, 8 h or 24 h.” left out
as §2

Ax30 = assay: Inhibition of release of 3-hydroxy-3-methyl-hexanoic acid in different bacterial species; details: Arthrobacter woluwensis
Procedure: as §1, with “The cells were then preincubated with the test agent for 30 min, 4 h, 8 h or 24 h.” left out
as §2

Ax73 = assay: as above; details: Corynebacterium coyleae
Procedure: as §1, with “The cells were then preincubated with the test agent for 30 min, 4 h, 8 h or 24 h.” left out
as §2

Ax52 = assay: as above; details: Corynebacterium mucifaciens
Procedure: as §1, with “The cells were then preincubated with the test agent for 30 min, 4 h, 8 h or 24 h.” left out
as §2

[2] = AX20, preincubation 0.5 h, 10 ppm test compound, read-out: % inhibition of the release of 3-hydroxy-3-methyl-hexanoic acid
[3] = AX20, preincubation 0.5 h, 100 ppm test compound, read-out: % inhibition of the release of 3-hydroxy-3-methyl-hexanoic acid
[4] = AX20, preincubation 4 h, 10 ppm test compound, read-out: % inhibition of the release of 3-hydroxy-3-methyl-hexanoic acid
[5] = AX20, preincubation 4 h, 100 ppm test compound, read-out: % inhibition of the release of 3-hydroxy-3-methyl-hexanoic acid
[6] = AX20, preincubation 8 h, 10 ppm test compound, read-out: % inhibition of the release of 3-hydroxy-3-methyl-hexanoic acid
[7] = AX20, preincubation 8 h, 100 ppm test compound, read-out: % inhibition of the release of 3-hydroxy-3-methyl-hexanoic acid
[8] = AX20, preincubation 24 h, 10 ppm test compound, read-out: % inhibition of the release of 3-hydroxy-3-methyl-hexanoic acid
[9] = AX20, preincubation 24 h, 100 ppm test compound, read-out: % inhibition of the release of 3-hydroxy-3-methyl-hexanoic acid
[10] = AX20, 100 ppm test compound, method of example 2, preincubation time not stated, read-out: % Inhibition of release of 3-hydroxy-3-methyl-hexanoic acid (100 ppm test compound)

CCCCC(CC)COC(=O)N[C@@H](CCC(N)=O)C(=O)O (stereo partly drawn) [Compound II, reference compound]
inhibition at 10 ppm (Corynebacterium Ax 20; [2]): 2.8%
inhibition at 100 ppm (Corynebacterium Ax 20; [3]): 33.4%
inhibition at 500 ppm (Corynebacterium Ax 20; AX20, preincubation 0.5 h): 76.6%
inhibition at 1000 ppm (Corynebacterium Ax 20; AX20, preincubation 0.5 h): 83%
inhibition at 10 ppm (Corynebacterium Ax 20; [4]): -4.4%
inhibition at 100 ppm (Corynebacterium Ax 20; [5]): -25.2%
inhibition at 500 ppm (Corynebacterium Ax 20; AX20, preincubation 4 h): 59.9%
inhibition at 1000 ppm (Corynebacterium Ax 20; AX20, preincubation 4 h): 79.5%
inhibition at 10 ppm (Corynebacterium Ax 20; [6]): 8.3%
inhibition at 100 ppm (Corynebacterium Ax 20; [7]): -9.8%
inhibition at 500 ppm (Corynebacterium Ax 20; AX20, preincubation 8 h): -5.6%
inhibition at 1000 ppm (Corynebacterium Ax 20; AX20, preincubation 8 h): 41.3%
inhibition at 10 ppm (Corynebacterium Ax 20; [8]): -1%
inhibition at 100 ppm (Corynebacterium Ax 20; [9]): -13.3%
inhibition at 500 ppm (Corynebacterium Ax 20; AX20, preincubation 24 h): -28.8%
inhibition at 1000 ppm (Corynebacterium Ax 20; AX20, preincubation 24 h): -23.1%
kind of inhibition (true inhibitor or alternative substrate) (Corynebacterium Ax 20): alternative substrate
IC 50 (Concentration for 50% inhibition of malodour release) (Corynebacterium Ax 20; preincubation time 0.5 h): 253.3 ppm
IC 50 (Concentration for 50% inhibition of malodour release) (Corynebacterium Ax 20; preincubation time 4 h): 387.2 ppm
IC 50 (Concentration for 50% inhibition of malodour release) (Corynebacterium Ax 20; preincubation time 8 h): >1000 ppm
IC 50 (Concentration for 50% inhibition of malodour release) (Corynebacterium Ax 20; preincubation time 24 h): >>1000 ppm

CCCCC(CC)CNC(=O)N[C@@H](CCC(N)=O)C(=O)O (stereo partly drawn) [Compound Ia, N2-[(2-ethylhexylamino)carbonyl]-L-glutamine]
inhibition at 10 ppm (Ax43; preincubation 0.5 h): 93%
inhibition at 100 ppm (Ax43; preincubation 0.5 h): 97%
inhibition at 10 ppm (Ax43; preincubation 2 h): 97%
inhibition at 100 ppm (Ax43; preincubation 2 h): 99%
inhibition at 10 ppm ([1]; preincubation 0.5 h): 84.6%
inhibition at 100 ppm ([1]; preincubation 0.5 h): 89.6%
inhibition at 10 ppm ([1]; preincubation 2 h): 79.2%
inhibition at 100 ppm ([1]; preincubation 2 h): 94.6%
activity in different bacterial species ([1]; conclusion from Table 4): active in all bacterial species
inhibition at 10 ppm (Ax30; preincubation 0.5 h): 95%
inhibition at 100 ppm (Ax30; preincubation 0.5 h): 100%
inhibition at 10 ppm (Ax30; preincubation 2 h): 93%
inhibition at 100 ppm (Ax30; preincubation 2 h): 100%
inhibition at 10 ppm (Ax73; preincubation 0.5 h): 107%
inhibition at 100 ppm (Ax73; preincubation 0.5 h): 87%
inhibition at 10 ppm (Ax73; preincubation 2 h): 70%
inhibition at 100 ppm (Ax73; preincubation 2 h): 94%
inhibition at 10 ppm (Ax52; preincubation 0.5 h): 77%
inhibition at 100 ppm (Ax52; preincubation 0.5 h): 83%
inhibition at 10 ppm (Ax52; preincubation 2 h): 86%
inhibition at 100 ppm (Ax52; preincubation 2 h): 94%
inhibitory activity compared to compound II (Corynebacterium Ax 20; 0.5 h preincubation time): > 25 fold
inhibitory activity compared to compound II (Corynebacterium Ax 20; 8 h preincubation time): > 100 times
inhibition of malodour release (Corynebacterium Ax 20; 10 ppm combined with Cosmocil CQ 100 ppm): 58.8
inhibition of malodour release (Corynebacterium Ax 20; 10 ppm combined with Cosmocil CQ 200 ppm): 75.6
inhibition of malodour release (Corynebacterium Ax 20; 10 ppm combined with Cosmocil CQ 500 ppm): 85.2
inhibition of malodour release (Corynebacterium Ax 20; 100 ppm combined with Cosmocil CQ 100 ppm): 85.9
inhibition of malodour release (Corynebacterium Ax 20; 100 ppm combined with Cosmocil CQ 200 ppm): 95.6
inhibition at 100 ppm (Corynebacterium Ax 20; [10]): 79.8%
inhibition at 10 ppm (Corynebacterium Ax 20; AX20, Ax20, preincubation 0.5 h, 10 ppm, read-out: % inhibition of release of 3-hydroxy-3-methyl-hexanoic acid): 51%
inhibition at 100 ppm (Corynebacterium Ax 20; AX20, Ax20, preincubation 0.5 h, 100 ppm, read-out: % inhibition of release of 3-hydroxy-3-methyl-hexanoic acid): 81%
inhibition at 10 ppm (Corynebacterium Ax 20; AX20, Ax20, preincubation 2 h, 10 ppm, read-out: % inhibition of release of 3-hydroxy-3-methyl-hexanoic acid): 50%
inhibition at 100 ppm (Corynebacterium Ax 20; AX20, Ax20, preincubation 2 h, 100 ppm, read-out: % inhibition of release of 3-hydroxy-3-methyl-hexanoic acid): 86%
inhibition at 10 ppm (Corynebacterium Ax 20; AX20, Compound Ia, 10 ppm alone (Cosmocil CQ 0 ppm), read-out: inhibition of malodour release): 61%
inhibition at 100 ppm (Corynebacterium Ax 20; AX20, Compound Ia, 100 ppm alone (Cosmocil CQ 0 ppm), read-out: inhibition of malodour release): 75.8%
inhibition at 10 ppm (Corynebacterium Ax 20; [2]): 61%
inhibition at 100 ppm (Corynebacterium Ax 20; [3]): 75.8%
inhibition at 500 ppm (Corynebacterium Ax 20; AX20, preincubation 0.5 h): 92.4%
inhibition at 1000 ppm (Corynebacterium Ax 20; AX20, preincubation 0.5 h): 92.5%
inhibition at 10 ppm (Corynebacterium Ax 20; [4]): 52.2%
inhibition at 100 ppm (Corynebacterium Ax 20; [5]): 81.2%
inhibition at 500 ppm (Corynebacterium Ax 20; AX20, preincubation 4 h): 100%
inhibition at 1000 ppm (Corynebacterium Ax 20; AX20, preincubation 4 h): 91.5%
inhibition at 10 ppm (Corynebacterium Ax 20; [6]): 65.2%
inhibition at 100 ppm (Corynebacterium Ax 20; [7]): 86%
inhibition at 500 ppm (Corynebacterium Ax 20; AX20, preincubation 8 h): 100%
inhibition at 1000 ppm (Corynebacterium Ax 20; AX20, preincubation 8 h): 91.8%
inhibition at 10 ppm (Corynebacterium Ax 20; [8]): 19.9%
inhibition at 100 ppm (Corynebacterium Ax 20; [9]): 83.2%
inhibition at 500 ppm (Corynebacterium Ax 20; AX20, preincubation 24 h): 100%
inhibition at 1000 ppm (Corynebacterium Ax 20; AX20, preincubation 24 h): 89.6%
kind of inhibition (true inhibitor or alternative substrate) (Corynebacterium Ax 20): true inhibitor
efficacy as inhibitors (Corynebacterium Ax 20): particularly good efficacy as inhibitors
IC 50 (Concentration for 50% inhibition of malodour release) (Corynebacterium Ax 20; preincubation time 0.5 h): <10 ppm
IC 50 (Concentration for 50% inhibition of malodour release) (Corynebacterium Ax 20; preincubation time 4 h): <10 ppm
IC 50 (Concentration for 50% inhibition of malodour release) (Corynebacterium Ax 20; preincubation time 8 h): <10 ppm
IC 50 (Concentration for 50% inhibition of malodour release) (Corynebacterium Ax 20; preincubation time 24 h): 52.8 ppm

NC(=O)CC[C@H](NC(=O)NCc1ccccc1)C(=O)O [Compound Ib, N2-[(benzylamino)carbonyl]-L-glutamine]
inhibition at 100 ppm (Corynebacterium Ax 20; [10]): 61%
efficacy as inhibitors (Corynebacterium Ax 20): particularly good efficacy as inhibitors

NC(=O)CC[C@H](NC(=O)Nc1cccc(Cc2ccccc2)c1)C(=O)O [Example 1c, N2-[(3-benzylphenylamino)carbonyl]-L-glutamine]
inhibition at 100 ppm (Corynebacterium Ax 20; [10]): 71%
